Test results from patent US12077503B2, “Substituted cyclic amides and their use as herbicides” (FMC CORPORATION, priority 2015, dated 2024).

What was measured:
Format in all cases: in vivo
[1] = tested on: giant foxtail (Setaria faberi); assay: Test G Post-Emergence Protocol; details: Setaria faberi, post-emergence, 312 h, read-out: Foxtail, Giant damage rating; for pest or weed control at 15.625 g/ha: 15.625 g ai/ha, evaluated after 13 days (100=total damage to plant; 0=no damage to plant); for pest or weed control at 62.5 g/ha: 62.5 g ai/ha; for pest or weed control at 62.5 g/ha / pest or weed control at 250 g/ha: evaluated after 13 days, 100=total damage to plant, 0=no damage to plant; for pest or weed control at 250 g/ha: 250 g ai/ha
Summary of the method: (§1)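 Scores run 0 (no damage) to 100 (total damage) and were taken 13 days after spraying. Plants had been raised in pots for 8 days under glasshouse control (24/16 °C, 14 h photoperiod, 65% humidity) and then treated at 15.625, 62.5 or 250 g/ha.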

[2] = tested on: velvetleaf (Abutilon theophrasti); assay: Test G Post-Emergence Protocol; details: Abutilon theophrasti, post-emergence, 312 h, read-out: Velvetleaf damage rating; for pest or weed control at 15.625 g/ha: 15.625 g ai/ha, evaluated after 13 days (100=total damage to plant; 0=no damage to plant); for pest or weed control at 62.5 g/ha: 62.5 g ai/ha; for pest or weed control at 62.5 g/ha / pest or weed control at 250 g/ha: evaluated after 13 days, 100=total damage to plant, 0=no damage to plant; for pest or weed control at 250 g/ha: 250 g ai/ha
Summary of the method: as §1

[3] = tested on: redroot pigweed (Amaranthus retroflexus); assay: Test G Post-Emergence Protocol; details: Amaranthus retroflexus, post-emergence, 312 h, read-out: Pigweed, Redroot damage rating; for pest or weed control at 15.625 g/ha: 15.625 g ai/ha, evaluated after 13 days (100=total damage to plant; 0=no damage to plant); for pest or weed control at 62.5 g/ha: 62.5 g ai/ha; for pest or weed control at 62.5 g/ha / pest or weed control at 250 g/ha: evaluated after 13 days, 100=total damage to plant, 0=no damage to plant; for pest or weed control at 250 g/ha: 250 g ai/ha
Summary of the method: as §1

[4] = tested on: barnyardgrass (Echinochloa crus-galli); assay: Test G Post-Emergence Protocol; details: Echinochloa crus-galli, post-emergence, 312 h, read-out: Barnyardgrass damage rating; for pest or weed control at 15.625 g/ha: 15.625 g ai/ha, evaluated after 13 days (100=total damage to plant; 0=no damage to plant); for pest or weed control at 62.5 g/ha: 62.5 g ai/ha; for pest or weed control at 62.5 g/ha / pest or weed control at 250 g/ha: evaluated after 13 days, 100=total damage to plant, 0=no damage to plant; for pest or weed control at 250 g/ha: 250 g ai/ha
Summary of the method: as §1

[5] = tested on: corn (Zea mays); assay: Test G Post-Emergence Protocol; details: Zea mays, post-emergence, 312 h, read-out: Corn damage rating; for plant injury at 15.625 g/ha: 15.625 g ai/ha, evaluated after 13 days (100=total damage to plant; 0=no damage to plant); for plant injury at 62.5 g/ha: 62.5 g ai/ha; for plant injury at 62.5 g/ha / plant injury at 250 g/ha: evaluated after 13 days, 100=total damage to plant, 0=no damage to plant; for plant injury at 250 g/ha: 250 g ai/ha
Summary of the method: as §1

[6] = tested on: ivy-leaved morning glory (Ipomoea hederacea); assay: Test G Post-Emergence Protocol; details: Ipomoea, post-emergence, 312 h, read-out: Morningglory, Ivy-leaved damage rating; for pest or weed control at 15.625 g/ha: 15.625 g ai/ha, evaluated after 13 days (100=total damage to plant; 0=no damage to plant); for pest or weed control at 62.5 g/ha: 62.5 g ai/ha; for pest or weed control at 62.5 g/ha / pest or weed control at 250 g/ha: evaluated after 13 days, 100=total damage to plant, 0=no damage to plant; for pest or weed control at 250 g/ha: 250 g ai/ha
Summary of the method: as §1

[7] = tested on: giant foxtail (Setaria faberi); assay: Test G Pre-Emergence Protocol; details: Setaria faberi, pre-emergence, 312 h, evaluated after 13 days; for pest or weed control at 15.625 g/ha: 15.625 g ai/ha; for pest or weed control at 15.625 g/ha / pest or weed control at 250 g/ha: read-out: Foxtail, Giant damage rating (100=total damage to plant; 0=no damage to plant); for pest or weed control at 62.5 g/ha: 62.5 g ai/ha, 100=total damage to plant, 0=no damage to plant, read-out: Foxtail, Giant damage rating; for pest or weed control at 250 g/ha: 250 g ai/ha
Summary of the method: (§2)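 Spraying took place one day after sowing, at 15.625, 62.5 or 250 g/ha, using an acetone/water (50:50) spray solution containing 0.5% Tween 20. Plants were kept under glasshouse conditions (24/16 °C, 14 h light, 65% humidity, watered twice daily), and injury was rated 0–100 at day 13.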

[8] = tested on: velvetleaf (Abutilon theophrasti); assay: Test G Pre-Emergence Protocol; details: Abutilon theophrasti, pre-emergence, 312 h, evaluated after 13 days; for pest or weed control at 15.625 g/ha: 15.625 g ai/ha; for pest or weed control at 15.625 g/ha / pest or weed control at 250 g/ha: read-out: Velvetleaf damage rating (100=total damage to plant; 0=no damage to plant); for pest or weed control at 62.5 g/ha: 62.5 g ai/ha, 100=total damage to plant, 0=no damage to plant, read-out: Velvetleaf damage rating; for pest or weed control at 250 g/ha: 250 g ai/ha
Summary of the method: as §2

[9] = tested on: redroot pigweed (Amaranthus retroflexus); assay: Test G Pre-Emergence Protocol; details: Amaranthus retroflexus, pre-emergence, 312 h, evaluated after 13 days; for pest or weed control at 15.625 g/ha: 15.625 g ai/ha; for pest or weed control at 15.625 g/ha / pest or weed control at 250 g/ha: read-out: Pigweed, Redroot damage rating (100=total damage to plant; 0=no damage to plant); for pest or weed control at 62.5 g/ha: 62.5 g ai/ha, 100=total damage to plant, 0=no damage to plant, read-out: Pigweed, Redroot damage rating; for pest or weed control at 250 g/ha: 250 g ai/ha
Summary of the method: as §2

[10] = tested on: barnyardgrass (Echinochloa crus-galli); assay: Test G Pre-Emergence Protocol; details: Echinochloa crus-galli, pre-emergence, 312 h, evaluated after 13 days; for pest or weed control at 15.625 g/ha: 15.625 g ai/ha; for pest or weed control at 15.625 g/ha / pest or weed control at 250 g/ha: read-out: Barnyardgrass damage rating (100=total damage to plant; 0=no damage to plant); for pest or weed control at 62.5 g/ha: 62.5 g ai/ha, 100=total damage to plant, 0=no damage to plant, read-out: Barnyardgrass damage rating; for pest or weed control at 250 g/ha: 250 g ai/ha
Summary of the method: as §2

[11] = tested on: corn (Zea mays); assay: Test G Pre-Emergence Protocol; details: Zea mays, pre-emergence, 312 h, evaluated after 13 days; for plant injury at 15.625 g/ha: 15.625 g ai/ha; for plant injury at 15.625 g/ha / plant injury at 250 g/ha: read-out: Corn damage rating (100=total damage to plant; 0=no damage to plant); for plant injury at 62.5 g/ha: 62.5 g ai/ha, 100=total damage to plant, 0=no damage to plant, read-out: Corn damage rating; for plant injury at 250 g/ha: 250 g ai/ha
Summary of the method: as §2

[12] = tested on: ivy-leaved morning glory (Ipomoea hederacea); assay: Test G Pre-Emergence Protocol; details: Ipomoea, pre-emergence, 312 h, evaluated after 13 days; for pest or weed control at 15.625 g/ha: 15.625 g ai/ha; for pest or weed control at 15.625 g/ha / pest or weed control at 250 g/ha: read-out: Morningglory, Ivy-leaved damage rating (100=total damage to plant; 0=no damage to plant); for pest or weed control at 62.5 g/ha: 62.5 g ai/ha, 100=total damage to plant, 0=no damage to plant, read-out: Morningglory, Ivy-leaved damage rating; for pest or weed control at 250 g/ha: 250 g ai/ha
Summary of the method: as §2

SMILES	pest or weed control at 15.625 g/ha [1] [%]	pest or weed control at 62.5 g/ha [1] [%]	pest or weed control at 250 g/ha [1] [%]	pest or weed control at 15.625 g/ha [2] [%]	pest or weed control at 62.5 g/ha [2] [%]	pest or weed control at 250 g/ha [2] [%]	pest or weed control at 15.625 g/ha [3] [%]	pest or weed control at 62.5 g/ha [3] [%]	pest or weed control at 250 g/ha [3] [%]	pest or weed control at 15.625 g/ha [4] [%]	pest or weed control at 62.5 g/ha [4] [%]	pest or weed control at 250 g/ha [4] [%]	plant injury at 15.625 g/ha [5] [%]	plant injury at 62.5 g/ha [5] [%]	plant injury at 250 g/ha [5] [%]	pest or weed control at 15.625 g/ha [6] [%]	pest or weed control at 62.5 g/ha [6] [%]	pest or weed control at 250 g/ha [6] [%]	pest or weed control at 15.625 g/ha [7] [%]	pest or weed control at 62.5 g/ha [7] [%]	further results
CN1C[C@@H](c2ccc(C(F)(F)F)cc2)[C@H](C(=O)Nc2ccc(F)nc2F)C1=O (racemic) [Compound 1650]	70	80	80	0	20	40	10	70	80	40	80	80	10	50	70	20	10	20	40	90	pest or weed control at 250 g/ha [7]: 90%; pest or weed control at 15.625 g/ha [8]: 0%; pest or weed control at 62.5 g/ha [8]: 0%; pest or weed control at 250 g/ha [8]: 50%; pest or weed control at 15.625 g/ha [9]: 0%; pest or weed control at 62.5 g/ha [9]: 70%; pest or weed control at 250 g/ha [9]: 80%; pest or weed control at 15.625 g/ha [10]: 10%; pest or weed control at 62.5 g/ha [10]: 70%; pest or weed control at 250 g/ha [10]: 90%; plant injury at 15.625 g/ha [11]: 0%; plant injury at 62.5 g/ha [11]: 0%; plant injury at 250 g/ha [11]: 80%; pest or weed control at 15.625 g/ha [12]: 0%; pest or weed control at 62.5 g/ha [12]: 0%; pest or weed control at 250 g/ha [12]: 0%
CN1C[C@@H](c2ccc(C(F)(F)F)cc2)[C@H](C(=O)Nc2ccncc2F)C1=O (racemic) [Compound 1652]	0	20	40	0	0	0	0	0	0	0	20	30	0	0	0	0	0	0	0	10	pest or weed control at 250 g/ha [7]: 30%; pest or weed control at 15.625 g/ha [8]: 0%; pest or weed control at 62.5 g/ha [8]: 0%; pest or weed control at 250 g/ha [8]: 0%; pest or weed control at 15.625 g/ha [9]: 0%; pest or weed control at 62.5 g/ha [9]: 0%; pest or weed control at 250 g/ha [9]: 0%; pest or weed control at 15.625 g/ha [10]: 0%; pest or weed control at 62.5 g/ha [10]: 0%; pest or weed control at 250 g/ha [10]: 0%; plant injury at 15.625 g/ha [11]: 0%; plant injury at 62.5 g/ha [11]: 0%; plant injury at 250 g/ha [11]: 10%; pest or weed control at 15.625 g/ha [12]: 0%; pest or weed control at 62.5 g/ha [12]: 0%; pest or weed control at 250 g/ha [12]: 0%
CN1C[C@@H](c2ccc(C(F)(F)F)cc2)[C@H](C(=O)Nc2ccc(F)nn2)C1=O (racemic) [Compound 1655]	0	30	30	0	0	0	0	0	40	0	20	20	0	0	0	0	0	0	0	0	pest or weed control at 250 g/ha [7]: 30%; pest or weed control at 15.625 g/ha [8]: 0%; pest or weed control at 62.5 g/ha [8]: 0%; pest or weed control at 250 g/ha [8]: 0%; pest or weed control at 15.625 g/ha [9]: 0%; pest or weed control at 62.5 g/ha [9]: 0%; pest or weed control at 250 g/ha [9]: 0%; pest or weed control at 15.625 g/ha [10]: 0%; pest or weed control at 62.5 g/ha [10]: 0%; pest or weed control at 250 g/ha [10]: 0%; plant injury at 15.625 g/ha [11]: 0%; plant injury at 62.5 g/ha [11]: 0%; plant injury at 250 g/ha [11]: 0%; pest or weed control at 15.625 g/ha [12]: 0%; pest or weed control at 62.5 g/ha [12]: 0%; pest or weed control at 250 g/ha [12]: 0%
